Assay results taken from patent publication US5348941A, “Stabilizers for fibroblast growth factors” (Merck & Co., Inc., priority 1992, dated 1994).

How the values were obtained:
aFGF = biological target: T1, aFGF (Homo sapiens, UniProt P05230); experiment: Thermal denaturation (Tm) of aFGF by fluorescence spectroscopy; format: biochemical; conditions: for molar excess of ligand to aFGF required for 50% stabilization: FIG. 9; for Tm maximum of aFGF, fluorescence: saturating ligand, 100 μg/ml aFGF
T1 construct: The recombinant derived, 140 amino add form is the preferred form of aFGF; N-terminal methionine (MetHaFGF); made in house; host or cells: microbial cells (preferred embodiment)
Method: Fluorescence spectra are obtained with a Spex Fluorolog-2 spectrofiuorometer using a 1 mm pathlength cuvette. Band passes from 1-2 nm are employed with sample absorptivities maintained below 0.1 at 280 nm. The temperature is controlled either manually or automatically as described above. Reproducibility of thermal denaturation temperatures (Tm) is ± 2° C.
To more directly ascertain the effect of heparin on aFGF stability, the temperature-induced denaturation of aFGF as a function of heparin concentration was monitored by fluorescence spectroscopy. Fluorescence spectra were obtained with a Spex Fluorolog-2 spectrofiuorometer using a 1 mm pathlength cuvette. Band passes from 1-2 nm were employed with sample absorptivities maintained below 0.1 at 280 nm. The temperature was controlled either manually or automatically as described above. Reproducibility of thermal denaturation temperatures (Tm) was ±2° C. […] Experiments were carried out at 100 μg/ml protein (6.3 μM) in a PBS buffer at pH 7.2. Curve drawn through data points for clarity only.
Studies of the stabilization of aFGF by heparin are difficult to interpret because of the inherent heterogeneity of heparin preparations, Lane and Lindahl, Eds. Heparin, Chemical and Biological Properties, Clinical Applications, Edward Arnold, London (1989); Jackson, et al., Physiol. Rev. 71: 481-539 (1991). In order to better understand the polyanionic stabilization of aFGF, a series of well-defined fragments of heparin were examined for their ability to stabilize aFGF against thermal denaturation. These enzymatically prepared and purified fragments varied in size from a disaccharide to a decasaccharide. Each fragment was incubated with aFGF at a 1:1 weight ratio in a PBS buffer. The sample was then stressed by temperature and structural changes in aFGF were monitored by both circular dichroism and fluorescence spectroscopy. […] All samples contained 100 μg/ml aFGF (6.3 μM)in a PBS buffer (pH 7.2) with 100 μg/ml of each heparin fragment.
Since these fragments of heparin have a well-defined molecular weight, the molar ratio of aFGF to ligand during these thermal denaturation experiments can be calculated. The Tm of aFGF as a function of the molar concentration of the hexasaccharide was measured by fluorescence spectroscopy. Fluorescence spectra were obtained with a Spex Fluorolog-2 spectrofiuorometer using a 1mm pathlength cuvette. Band passes from 1-2 nm were employed with sample absorptivities maintained below 0.1 at 280 nm. The temperature was controlled either manually or automatically as described above. Reproducibility of thermal denaturation temperatures (Tm) was ±2° C.
Analogous to the heparin experiments illustrated in Example 1 (FIG. 3), aFGF thermal stability was monitored by fluorescence spectroscopy as a function of concentration for several other of the polyanions. […] All samples contained 100 μg/ml of aFGF (6.3 μM) in a PBS buffer at pH 7.2.

[1] = system: BALB/c 3T3 A31 fibroblasts; experiment: Fibroblast mitogenic assay ([3H]-thymidine incorporation into DNA); format: cell-based; conditions: presence of heparin
plasma = experiment: Anticoagulant activity: clotting time (PT / aPTT assay) relative to heparin; format: biochemical; conditions: equal weight of heparin, no aFGF present
Method: Clotting times are monitored by either a one-stage plasma prothrombin time assay (PT assay) or an activated partial thromboplastin time assay (aPTT) using an automated optical detection system (coag-a-Mate®-XC) by General Diagnostics. Clotting times are measured in the presence of varying amounts of heparin (0-50 μg heparin/ml plasma) to generate a standard curve and dotting times of other compounds (at equal wt. amounts) are obtained relative to these standardized values.
^(c) Anticoagulant activity is expressed as a fraction of activity
observed with an equal weight of heparin (+ less than 1/10; ++ 1/10 to
1/2; +++ heparin). No aFGF is present during these measurements.
The anticoagulant properties of heparin are well established, so it was of interest to determine the relative anticoagulant properties of the ligands of this study. The anticoagulant effect of these molecules was measured using a dotting time assay (see methods). Clotting times were monitored by either a one-stage plasma prothrombin time assay (PT assay) or an activated partial thromboplastin time assay (aPTT) using an automated optical detection system (coag-a-Mate*-XC) by General Diagnostics. […]

[2] = system: genetically diabetic C57GBL/Ks- db+/db^+ female mice; experiment: In vivo wound healing model (single 2 cm^2 full thickness wound); set-up: species or system mouse; conditions: with aFGF
Source text: The in vivo animal wound healing model employs genetically diabetic c57GBL/Ks- db+/db+ female mice. The assay follows that described by Marsella et al., Wounds: A Compendium of Clinical Research and Practice, 2, (4) July/August 1990, p. 135-147, except that a single 2 cm^2 full thickness wound is used instead of the two 6 mm biopsy wounds described by Marsella. Another difference is that the wounds are covered with a polyurethane dressing. Addic FGF is applied to wounds on days 0, 3 and 7. Matching placebo formulations are used in a second group of animals. Dressings are changed every three to four days, at which time wound perimeters are traced for assessment of healing. Comparison of healing rate va. a placebo control is made and evaluated for statistical significance at the 90% healed stage.
Human aFGF as described above was combined with various stabilizers to evaluate wound healing activity of the stabilized aFGF. The in vivo animal wound healing model employs genetically diabetic C57GBL/Ks- db+/db^+ female mice (Jackson Laboratory). The assay follows that described by Marsella et. al., Wounds: A Compendium of Clinical Research and Practice, 2, (4) July/August 1990, p. […] Comparison of healing rate vs. a placebo control is made and evaluated for statistical significance at the 90% healed stage. […]

T1 sequence (P05230 16-155 limits assumed): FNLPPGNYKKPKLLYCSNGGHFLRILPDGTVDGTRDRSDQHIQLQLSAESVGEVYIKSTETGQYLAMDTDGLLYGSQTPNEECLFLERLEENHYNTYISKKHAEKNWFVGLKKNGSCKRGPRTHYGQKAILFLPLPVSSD

Compound | molar excess of ligand to aFGF required for 50% stabilization (aFGF; fluorescence) | Tm maximum of aFGF, fluorescence (aFGF; PBS pH 7.2) | mitogenic activity of aFGF [1] | thermal melting temperature (Tm) of aFGF, fluorescence (aFGF; 1/3X ligand by weight, PBS pH 7.2) | thermal melting temperature (Tm) of aFGF, fluorescence (aFGF; 3X ligand by weight, PBS pH 7.2) | concentration of heparin necessary to obtain one-half the Tm maximum (aFGF; fluorescence, PBS pH 7.2) | Anticoagulant Activity of Ligand (% Heparin by Wt) (plasma) | wound healing efficacy [2]
O=P(O)(O)OP(=O)(O)OP(=O)(O)OP(=O)(O)O [Tetrapolyphosphate] | approximately 6 | 50 °C | showed activity when assayed in the presence of heparin |  |  |  |  | 
heparin [reference compound] |  | 61 °C |  | 59 °C | 61 °C | 0.1 X (by weight) | + ++ | 
O=P(O)(O)O[C@H]1[C@H](OP(=O)(O)O)[C@@H](OP(=O)(O)O)[C@H](OP(=O)(O)O)[C@@H](OP(=O)(O)O)[C@H]1OP(=O)(O)O [Inositol hexaphosphate, inositol hexaphosphate] | ~2 | 60 °C |  |  |  |  |  | 
sulfated β-cyclodextrin | ~1.5 | 56 °C |  |  |  |  |  | as efficacious as heparin in stimulating
O=S(=O)(O)OC1C(OS(=O)(=O)O)C(OS(=O)(=O)O)C(OS(=O)(=O)O)C(OS(=O)(=O)O)C1OS(=O)(=O)O (stereo not shown) [Inositol hexasulfate, inositol hexasulfate] | ~3.5 | 53 °C |  |  |  |  |  | as efficacious as heparin in stimulating
